Our source for the Dmax values is US20250205344A1, “2,4-DIOXOTETRAHYDROPYRIMIDINYL DERATIVES AS DEGRONS IN PROTACS” (GLAXOSMITHKLINE INTELLECTUAL PROPERTY DEVELOPMENT LIMITED, priority 2022, published 2025).

Where a name gives a salt, the structure may show the parent alone. Where only a bound is given, the exact number is not on record here.

For this assay, the target named is T1, Androgen Receptor (Homo sapiens, UniProt P10275, T878A).
T1 construct: the AR gene was modified, using CRISPR/Cas9 editing, so the expressed AR protein included an 11 amino acid HiBiT tag; endogenous in cells; host or cells: clonal LnCaP-derived line, AR gene edited by CRISPR/Cas9
Briefly: Androgen Receptor Degradation Assay (Nano-Glo HiBiT). Particulars: LNCaP, 18 h, HiBiT-tagged AR in human LnCaP cells, read-out: mean asymptote max. The assay is classed as cell-based. As to the method: Degradation of Androgen Receptor protein in human LnCaP cells treated with PROTACs was quantified using the Nano-Glo® HiBiT Lytic Detection System (Promega) in 384 well assay plate format. A clonal LnCaP derived cell line was first established in which the AR gene was modified, using CRISPR/Cas9 editing, so the expressed AR protein included an 11 amino acid HiBiT tag at its amino-terminus. 10 mM DMSO stock solutions of PROTACs were prepared and diluted across an 11 concentration, 3 fold increment range, and 25 nL dispensed into a white opaque bottomed 384 well assay plate (Thermofisher) using an acoustic ECHO dispenser (Labcyte). […] For the assay, cells were detached from flask and resuspended with assay medium (FluoroBrite™ DMEM supplemented with 10% heat inactivated FBS, penicillin 50 U/mL and streptomycin 50 ug/mL (Thermofisher)). The cell suspension was centrifuged at 400 g for 5 min and the pellet resuspended in assay medium. 25 μL of cell suspension containing 10,000 cells was dispensed into each well of the assay plate containing the test compounds, which was then incubated for 18 h at 37° C./5% CO2. Control wells were included on each assay plate, with assay medium without cells being the no AR remaining 100% effect control, and cells treated with DMSO vehicle only, without PROTAC, the 0% effect control. 25 μL of Nano-Glo® HiBiT lysis buffer supplemented with LgBiT protein and Nano-Glo® substrate (Promega) was added to each well and the plate shaken at 500 rpm for 10 min at room temperature. The intensity of luminescence was measured using a PHERAstar microplate reader (BMG Labtech) and the % AR protein remaining in each well calculated by normalising the raw luminescence value to the above control wells. Parameters corresponding to the potency and efficacy estimates of the PROTACs were obtained from these normalised luminescence values using software (IDBS ActivityBase). These included the DC50 and the Dmax estimates. Two versions of the DC50, called relative DC50 and absolute DC50, were typically generated. These are the inflection point of a fitted 4 parameter sigmoidal response curve and the interpolated concentration of PROTAC corresponding to 50% of the protein being degraded, respectively. The Dmax parameter was the maximum experimentally observed degradation and the asymptote max parameter the fitted response curve asymptote maximum.
For orientation: The HiBiT peptide binds its large partner to form an active luciferase.

T1 sequence (P10275 whole entry T878A): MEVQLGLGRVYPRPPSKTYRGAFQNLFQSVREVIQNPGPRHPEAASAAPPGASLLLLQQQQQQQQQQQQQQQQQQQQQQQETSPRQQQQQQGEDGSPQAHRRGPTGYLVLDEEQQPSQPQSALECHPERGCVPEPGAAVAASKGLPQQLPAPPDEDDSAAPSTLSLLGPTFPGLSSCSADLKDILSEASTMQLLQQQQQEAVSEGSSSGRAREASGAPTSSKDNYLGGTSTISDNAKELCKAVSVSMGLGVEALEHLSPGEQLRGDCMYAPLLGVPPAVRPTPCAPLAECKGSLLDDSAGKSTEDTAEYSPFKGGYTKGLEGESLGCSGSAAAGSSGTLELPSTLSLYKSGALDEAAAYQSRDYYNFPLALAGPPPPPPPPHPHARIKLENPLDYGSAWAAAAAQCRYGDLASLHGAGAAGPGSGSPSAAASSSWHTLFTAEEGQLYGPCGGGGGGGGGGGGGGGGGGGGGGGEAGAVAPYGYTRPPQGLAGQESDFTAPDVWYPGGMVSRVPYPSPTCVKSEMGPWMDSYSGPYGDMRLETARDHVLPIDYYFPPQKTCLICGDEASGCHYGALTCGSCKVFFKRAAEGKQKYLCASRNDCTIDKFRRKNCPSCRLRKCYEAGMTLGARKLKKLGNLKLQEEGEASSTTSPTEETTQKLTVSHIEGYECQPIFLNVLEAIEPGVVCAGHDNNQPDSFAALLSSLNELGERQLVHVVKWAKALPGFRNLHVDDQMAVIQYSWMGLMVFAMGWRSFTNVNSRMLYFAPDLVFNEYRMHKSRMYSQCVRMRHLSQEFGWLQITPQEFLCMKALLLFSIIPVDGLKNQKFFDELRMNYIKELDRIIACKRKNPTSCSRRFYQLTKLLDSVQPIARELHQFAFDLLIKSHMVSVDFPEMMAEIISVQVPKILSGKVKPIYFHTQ
T1 sequence (Q96SW2 whole entry partner): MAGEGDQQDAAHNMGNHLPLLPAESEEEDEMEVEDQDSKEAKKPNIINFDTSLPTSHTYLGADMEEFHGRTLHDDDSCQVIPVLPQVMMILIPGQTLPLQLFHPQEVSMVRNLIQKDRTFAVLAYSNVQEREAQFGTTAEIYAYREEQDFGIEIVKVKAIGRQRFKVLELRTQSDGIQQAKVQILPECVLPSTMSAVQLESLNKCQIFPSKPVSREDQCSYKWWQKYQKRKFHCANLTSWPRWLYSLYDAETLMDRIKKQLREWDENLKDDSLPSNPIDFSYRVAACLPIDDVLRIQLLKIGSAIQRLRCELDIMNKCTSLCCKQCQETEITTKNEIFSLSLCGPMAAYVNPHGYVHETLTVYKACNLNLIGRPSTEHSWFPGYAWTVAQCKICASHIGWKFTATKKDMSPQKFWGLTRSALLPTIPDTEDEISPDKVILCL
T1 sequence (Q16531 whole entry partner): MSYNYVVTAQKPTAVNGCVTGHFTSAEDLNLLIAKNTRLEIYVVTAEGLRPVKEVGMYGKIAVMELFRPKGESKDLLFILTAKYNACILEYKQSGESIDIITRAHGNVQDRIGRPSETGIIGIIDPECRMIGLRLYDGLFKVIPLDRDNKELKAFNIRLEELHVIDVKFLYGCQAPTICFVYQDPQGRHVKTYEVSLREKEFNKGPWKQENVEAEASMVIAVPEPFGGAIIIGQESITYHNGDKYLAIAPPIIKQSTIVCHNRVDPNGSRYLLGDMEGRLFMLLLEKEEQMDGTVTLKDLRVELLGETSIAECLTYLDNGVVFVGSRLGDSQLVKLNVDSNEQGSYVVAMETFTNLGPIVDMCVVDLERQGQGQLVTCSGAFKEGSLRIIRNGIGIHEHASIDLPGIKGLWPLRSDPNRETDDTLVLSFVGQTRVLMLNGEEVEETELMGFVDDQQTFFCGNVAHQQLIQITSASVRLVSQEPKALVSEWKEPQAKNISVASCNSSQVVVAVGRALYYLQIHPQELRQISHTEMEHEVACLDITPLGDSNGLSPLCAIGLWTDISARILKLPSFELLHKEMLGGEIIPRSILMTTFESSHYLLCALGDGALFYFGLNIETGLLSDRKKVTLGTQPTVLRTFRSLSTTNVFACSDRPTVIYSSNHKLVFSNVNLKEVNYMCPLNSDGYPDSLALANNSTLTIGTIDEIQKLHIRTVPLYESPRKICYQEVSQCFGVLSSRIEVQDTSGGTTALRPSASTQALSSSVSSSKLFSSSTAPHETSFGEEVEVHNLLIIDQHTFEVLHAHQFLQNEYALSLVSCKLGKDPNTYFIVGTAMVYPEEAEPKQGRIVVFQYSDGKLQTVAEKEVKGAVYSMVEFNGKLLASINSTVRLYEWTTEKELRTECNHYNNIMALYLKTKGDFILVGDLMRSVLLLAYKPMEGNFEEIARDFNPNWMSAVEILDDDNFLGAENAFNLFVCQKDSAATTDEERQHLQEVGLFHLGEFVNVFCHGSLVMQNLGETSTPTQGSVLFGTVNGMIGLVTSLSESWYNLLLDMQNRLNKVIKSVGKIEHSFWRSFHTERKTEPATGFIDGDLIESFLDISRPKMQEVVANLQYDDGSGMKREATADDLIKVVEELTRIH

`N#Cc1ccc(O[C@H]2CC[C@H](NC(=O)c3ccc(N4CCC(CN5CCC(n6ccc7c(-n8ccc(=O)[nH]c8=O)cccc76)CC5)CC4)nn3)CC2)cc1Cl` [EAR141, N-((1r,4r)-4-(3-Chloro-4-cyanophenoxy)cyclohexyl)-6-(4-((4-(4-(2,4-dioxo-3,4-dihydropyrimidin-1(2H)-yl)-1H-indol-1-yl)piperidin-1-yl)methyl)piperidin-1-yl)pyridazine-3-carboxamide, hydrochloride]: the Dmax is at least 50%.
`N#Cc1ccc(O[C@H]2CC[C@H](NC(=O)c3ccc(N4CC(CN5CCC(n6ccc7c(N8CCC(=O)NC8=O)cccc76)CC5)C4)nn3)CC2)cc1Cl` [EAR72, N-((1r,4r)-4-(3-Chloro-4-cyanophenoxy)cyclohexyl)-6-(3-((4-(4-(2,4-dioxotetrahydropyrimidin-1(2H)-yl)-1H-indol-1-yl)piperidin-1-yl)methyl)azetidin-1-yl)pyridazine-3-carboxamide hydrochloride]: the Dmax was at least 50%.
The value for `CC1(C)[C@H](NC(=O)c2ccc(N3CCC(CN4CCC(n5ncc6c(N7CCC(=O)NC7=O)ccnc65)CC4)CC3)cn2)C(C)(C)[C@H]1Oc1ccc(C#N)c2ncccc12` [EAR260, N-((1r,3r)-3-((8-Cyanoquinolin-5-yl)oxy)-2,2,4,4-tetramethylcyclobutyl)-5-(4-((4-(4-(2,4-dioxotetrahydropyrimidin-1(2H)-yl)-1H-pyrazolo[3,4-b]pyridin-1-yl)piperidin-1-yl)methyl)piperidin-1-yl)picolinamide hydrochloride] was at least 50%; that for `N#Cc1ccc(O[C@H]2CC[C@H](NC(=O)c3ccc(N4CCC(N5CCC(n6ccc7c(N8CCC(=O)NC8=O)cccc76)CC5)CC4)nn3)CC2)cc1Cl` [AR7, N-((1r,4r)-4-(3-Chloro-4-cyanophenoxy)cyclohexyl)-6-(4-(4-(2,4-dioxotetrahydropyrimidin-1(2H)-yl)-1H-indol-1-yl)-[1,4′-bipiperidin]-1′-yl)pyridazine-3-carboxamide] was at least 50%.
Next, `N#Cc1ccc(O[C@H]2CC[C@H](NC(=O)c3ccc(N4CCC(CN5CCC(n6ccc7c(N8CCC(=O)NC8=O)cccc76)CC5)CC4)cc3F)CC2)cc1Cl` [EAR187, N-((1r,4r)-4-(3-Chloro-4-cyanophenoxy)cyclohexyl)-4-(4-((4-(4-(2,4-dioxotetrahydropyrimidin-1(2H)-yl)-1H-indol-1-yl)piperidin-1-yl)methyl)piperidin-1-yl)-2-fluorobenzamide]: at least 50%; `N#Cc1ccc(O[C@H]2CC[C@H](NC(=O)c3cnc(N4CCC(CN5CCC(n6ccc7c(N8CCC(=O)NC8=O)cc(F)cc76)CC5)CC4)cn3)CC2)cc1Cl` [EAR202, N-((1r,4r)-4-(3-Chloro-4-cyanophenoxy)cyclohexyl)-5-(4-((4-(4-(2,4-dioxotetrahydropyrimidin-1(2H)-yl)-6-fluoro-1H-indol-1-yl)piperidin-1-yl)methyl)piperidin-1-yl)pyrazine-2-carboxamide hydrochloride]: at least 50%; `N#Cc1ccc(O[C@H]2CC[C@H](NC(=O)c3ccc(N4CCC(CN5CCC(n6ccc7c(N8CCC(=O)NC8=O)nc(Cl)nc76)CC5)CC4)nn3)CC2)cc1Cl` [EAR175, 6-(4-((4-(2-Chloro-4-(2,4-dioxotetrahydropyrimidin-1(2H)-yl)-7H-pyrrolo[2,3-d]pyrimidin-7-yl)piperidin-1-yl)methyl)piperidin-1-yl)-N-((1r,4r)-4-(3-chloro-4-cyanophenoxy)cyclohexyl)pyridazine-3-carboxamide]: at least 50%.
Consider `N#Cc1ccc(O[C@H]2CC[C@H](NC(=O)c3cnc(N4CCC(CN5CCC(n6ccc7c(N8CCC(=O)NC8=O)cccc76)CC5)CC4)nc3)CC2)cc1Cl` [AR10, N-((1r,4r)-4-(3-Chloro-4-cyanophenoxy)cyclohexyl)-2-(4-((4-(4-(2,4-dioxotetrahydropyrimidin-1(2H)-yl)-1H-indol-1-yl)piperidin-1-yl)methyl)piperidin-1-yl)pyrimidine-5-carboxamide], for which the Dmax is at least 50%.
The value for `N#Cc1ccc(O[C@H]2CC[C@H](NC(=O)c3ccc(N4CCC(n5ccc6c(N7CCC(=O)NC7=O)cccc65)CC4)cc3)CC2)cc1Cl` [EAR54, N-((1r,4r)-4-(3-Chloro-4-cyanophenoxy)cyclohexyl)-4-(4-(4-(2,4-dioxotetrahydropyrimidin-1(2H)-yl)-1H-indol-1-yl)piperidin-1-yl)benzamide] was at least 50%; that for `N#Cc1ccc(O[C@H]2CC[C@H](NC(=O)c3ccc(N4C[C@@H]5[C@H](CN6CCC(n7ncc8c(N9CCC(=O)NC9=O)cccc87)CC6)[C@@H]5C4)nn3)CC2)cc1Cl` [EAR235, N-((1r,4R)-4-(3-chloro-4-cyanophenoxy)cyclohexyl)-6-((1R,5S,6R)-6-((4-(4-(2,4-dioxotetrahydropyrimidin-1(2H)-yl)-1H-indazol-1-yl)piperidin-1-yl)methyl)-3-azabicyclo[3.1.0]hexan-3-yl)pyridazine-3-carboxamide] was at least 50%; that for `N#Cc1ccc(O[C@H]2CC[C@H](NC(=O)c3ccc(C4CCN(CC(=O)N5CCC(n6ncc7c(N8CCC(=O)NC8=O)cccc76)CC5)CC4)nn3)CC2)cc1Cl` [EAR167, N-((1r,4r)-4-(3-Chloro-4-cyanophenoxy)cyclohexyl)-6-(1-(2-(4-(4-(2,4-dioxotetrahydropyrimidin-1(2H)-yl)-1H-indazol-1-yl)piperidin-1-yl)-2-oxoethyl)piperidin-4-yl)pyridazine-3-carboxamide] was at least 50%.
Next, `CN(c1ccc(C#N)c(Cl)c1)[C@H]1CC[C@H](NC(=O)c2ccc(N3CCC(CN4CCC(n5ccc6c(N7CCC(=O)NC7=O)cccc65)CC4)CC3)nn2)CC1` [EAR157, N-((1r,4r)-4-((3-Chloro-4-cyanophenyl)(methyl)amino)cyclohexyl)-6-(4-((4-(4-(2,4-dioxotetrahydropyrimidin-1(2H)-yl)-1H-indol-1-yl)piperidin-1-yl)methyl)piperidin-1-yl)pyridazine-3-carboxamide]: at least 50%; `N#Cc1ccc(O[C@H]2CC[C@H](NC(=O)c3ccc(N4CCC[C@@H](CN5CCC(n6ncc7c(N8CCC(=O)NC8=O)cccc76)CC5)C4)nn3)CC2)cc1Cl` [EAR153, N-((1r,4S)-4-(3-Chloro-4-cyanophenoxy)cyclohexyl)-6-((S)-3-((4-(4-(2,4-dioxotetrahydropyrimidin-1(2H)-yl)-1H-indazol-1-yl)piperidin-1-yl)methyl)piperidin-1-yl)pyridazine-3-carboxamide, formic acid salt]: at least 50%; `CC(C)n1ccc2c(N3CCC(=O)NC3=O)cc(C(=O)N(C)CC3CCN(CCCOc4ccc(C(=O)N[C@H]5CC[C@H](Oc6ccc(C#N)c(Cl)c6)CC5)nc4)CC3)cc21` [EAR61, N-((1-(3-((6-(((1r,4r)-4-(3-Chloro-4-cyanophenoxy)cyclohexyl)carbamoyl)pyridin-3-yl)oxy)propyl)piperidin-4-yl)methyl)-4-(2,4-dioxotetrahydropyrimidin-1(2H)-yl)-1-isopropyl-N-methyl-1H-indole-6-carboxamide]: at least 50%.
The value for `CC1(C)[C@H](NC(=O)c2ccc(N3CCC(CN4CCC(n5ccc6c(N7CCC(=O)NC7=O)nccc65)CC4)CC3)nc2)C(C)(C)[C@H]1Oc1cnc(C#N)c(Cl)c1` [EAR259, N-((1r,3r)-3-((5-Chloro-6-cyanopyridin-3-yl)oxy)-2,2,4,4-tetramethylcyclobutyl)-6-(4-((4-(4-(2,4-dioxotetrahydropyrimidin-1(2H)-yl)-1H-pyrrolo[3,2-c]pyridin-1-yl)piperidin-1-yl)methyl)piperidin-1-yl)nicotinamide] was at least 50%; that for `N#Cc1ccc(O[C@H]2CC[C@H](NC(=O)c3ccc(N4CCC(CN5CCC(F)(Cn6ccc7c(N8CCC(=O)NC8=O)cccc76)CC5)CC4)nn3)CC2)cc1Cl` [EAR168, N-((1r,4r)-4-(3-Chloro-4-cyanophenoxy)cyclohexyl)-6-(4-((4-((4-(2,4-dioxotetrahydropyrimidin-1(2H)-yl)-1H-indol-1-yl)methyl)-4-fluoropiperidin-1-yl)methyl)piperidin-1-yl)pyridazine-3-carboxamide] was at least 50%; that for `C[C@@H]1CN(C(=O)Nc2ccc(N3CCC(CN4CCC(n5ncc6c(N7CCC(=O)NC7=O)cccc65)CC4)CC3)nc2)[C@@H](C)CN1c1ccc(C#N)c(Cl)c1` [EAR138, (2S,5R)-4-(3-Chloro-4-cyanophenyl)-N-(6-(4-((4-(4-(2,4-dioxotetrahydropyrimidin-1(2H)-yl)-1H-indazol-1-yl)piperidin-1-yl)methyl)piperidin-1-yl)pyridin-3-yl)-2,5-dimethylpiperazine-1-carboxamide, formic acid salt] was at least 50%.
